In US9918983B2, “Suicidal LSD1 inhibitors targeting SOX2-expressing cancer cells” (THE BOARD OF REGENTS OF THE NEVADA SYSTEM OF HIGHER …, priority 2013, dated 2018):

Key:
[1] = system: PA-1 cells; assay: Cell growth/viability (MTT, microscopy); assay type: cell-based, human; settings: PA-1 cells, 50 μM, 30 hours
Protocol: (§1) Lung, breast, ovarian, and other carcinoma cells were either obtained from American Type Culture Collection (ATCC) or from the DTP and DCTD Tumor Repository of National Cancer Institute (the NCI-60 cancer cell line panel), operated by Charles River Laboratory, Inc., as listed in Table 1. They were cultured according to instructions and treated with various concentrations of LSD1 inhibitors for 30-36 hours for mRNA analysis by quantitative real time RT-PCR or for 30-48 hours for protein analysis and the cell viability assays using Western blotting or microscopy and MTT assays as described previously (Wang, J., et al. (2011) Cancer Research 71, 7238-7249).
(§2) Alternatively, cell viability assays were conducted as previously described (Wang, J., et al. (2011) Cancer Research 71, 7238-7249). For the MTT assay, cells were seeded onto 96-well culture plates with a density of 2000-5000 cells/well, and incubated with CBB1003 or CBB1007 at various concentrations from 1 to 100 μM for 30-48 hours, depending cell growth rate. Dimethylsulfoxide (DMSO) was used as a solvent control. MTT was added to a final concentration of 0.5 mg/mL and cells were re-incubated for 4 hours. After removing the medium, 200 μL DMSO was added to dissolve formazan, followed by incubation for 10 minutes, and absorbance was measured at 490 nm by a Bio Red microplate reader. All assays were performed in triplicates for each concentration. The cell viability rate was calculated as the relative percentage of MTT absorption as follows: % cell viability=(mean experimental absorbance/mean control absorbance)×100.
(§3) Table 8 below lists activity of CBB3001 (compound 10) in Sox2-negative (ES-2) and Sox2-expressing (PA-1 and T47D) cancer cells determined in a cell-based assay as described herein (see also FIG. 3A-C).

[2] = system: BT-549 cells; assay: Cell growth/viability (MTT, microscopy); assay type: cell-based, human; settings: BT549 cells, 50 μM, 30 hours
Protocol: as §1, §2

[3] = system: HS38.T cells; assay: Cell growth/viability (MTT, microscopy); assay type: cell-based, human; settings: 50 μM, 30 hours
Protocol: as §1, §2

[4] = system: IGROV-1 cells; assay: Cell growth/viability (MTT, microscopy); assay type: cell-based, human; settings: 50 μM, 30 hours
Protocol: as §1, §2

[5] = system: MCF7 cells; assay: Cell growth/viability (MTT, microscopy); assay type: cell-based, human; settings: 50 μM, 30 hours
Protocol: as §1, §2

[6] = system: SK-BR-3 cells; assay: Cell growth/viability (MTT, microscopy); assay type: cell-based, human; settings: 50 μM, 30 hours
Protocol: as §1, §2

[7] = system: SKOV-3 cells; assay: Cell growth/viability (MTT, microscopy); assay type: cell-based, human; settings: 50 μM, 30 hours
Protocol: as §1, §2

[8] = system: ES-2 cells; assay: Cell growth/viability (MTT, microscopy); assay type: cell-based, human; settings: ES-2 cells, 50 μM, 30 hours
Protocol: as §1
as §2, with “For the MTT assay, cells were seeded onto 96-well culture plates with a density of 2000-5000 cells/well, and incubated with CBB1003 or CBB1007 at various concentrations from 1 to 100 μM for 30-48 hours, depending cell growth rate.” left out
as §3

[9] = system: A549 cells; assay: Cell growth/viability (MTT, microscopy); assay type: cell-based, human; settings: 50 μM, 30 hr
Protocol: as §1
as §2, with “absorbance)×100. […]” for “absorbance)×100.”
(§4) Referring to FIG. 5C, the percent viability of cells treated with LSD1 inhibitors or siRNAs compared with control cells, as determined by 3-(4,5-dimethylthiazol-2-yl)-2,5-diphenyltetrazolium bromide (MTT) assay is shown. […] The statistical differences between inhibitor-treated and control groups were analyzed by one-way ANOVA (scale bar=[…]; **p<0.01).

[10] = system: NCI-H1437 cells; assay: Cell growth/viability (MTT, microscopy); assay type: cell-based, human; settings: 24-30 hr (50 μM, 30 hr in FIG. 5B)
Protocol: as §1
as §2, with “absorbance)×100. […]” for “absorbance)×100.”
as §4

[11] = system: NCI-H520 cells; assay: Cell growth/viability (MTT, microscopy); assay type: cell-based, human; settings: 24-30 hr (50 μM, 30 hr in FIG. 5B)
Protocol: as §1
as §2, with “absorbance)×100. […]” for “absorbance)×100.”
as §4

[12] = system: Sox2; assay: Sox2 protein level by western blotting in carcinoma cells; assay type: cell-based, human; parameters: dose or concentration left out as unconfirmed; settings: indicated carcinoma cells, 30 hr
Text: Log-phase growing cancer cells were directly lysed in a buffer containing 0.5% SDS. Proteins in the lysates were equalized and analyzed by Western blotting using antibodies against Sox2, LSD1, H3K4Me1, H3K4Me2, Oct4, and other proteins as described previously or in the figure descriptions (Wang, J., et al. (2011) Cancer Research 71, 7238-7249). For immunohistochemical staining, rabbit monoclonal anti-LSD1 (clone C69G12, cat. #2184) and anti-Sox2 (clone D6D9, cat. #3579) antibodies were obtained from Cell Signaling. Rabbit anti-Sox2 polyclonal antibodies were raised using the purified GST-Sox2 fusion protein as the antigen.
Referring to FIG. 11A, inactivation of LSD1 by LSD1 inhibitors or siRNAs caused the downregulation of Sox2. The indicated carcinoma cells were treated with […] of the LSD1 inhibitors CBB1007 and CBB1003 for 30 hr or with 50 nM of Luc or LSD1 siRNAs for 60 hr. The protein levels of LSD1, Sox2, Lin28, CUL1, and histone H3 were analyzed by western blotting.

[13] = molecular target: T1, HDAC1-protein A complex (Mus musculus, UniProt O09106); assay: In vitro deacetylation assay, immunoaffinity-purified HDAC1-protein A complex from F9 cells; assay type: biochemical; settings: H4K16ac peptide; 50 μM CBB1007 or 2 μM MS-275
T1 construct: 1 μg immunoprecipitated endogenous HDAC1-protein A complexes; endogenous in cells; host or cells: F9 mouse teratocarcinoma cells, anti-HDAC1 immunoprecipitate on protein A-Sepharose
Protocol: The immunocomplexes were captured by protein A-Sepharose. Isolated LSD1-protein A or HDAC1-protein A complexes were verified by Western blotting with LSD1 and HDAC1 antibodies.
The percentages of deacetylated products were analyzed by mass spectrometry, and the data were analyzed by GraphPad Prism (version 5) software.

[14] = molecular target: T2, LSD1-CoREST-HDAC1 complex (Homo sapiens, UniProt O60341+Q13547); assay: Reconstituted LSD1-CoREST-HDAC1 complex on oligonucleosomes; assay type: biochemical; settings: 50 μM CBB1007 or 2 μM MS-275
T2 construct: Human LSD1 and HDAC1 full-length cDNAs were obtained from Open Biosystems; GST (N, cleaved yes); made in house; host or cells: Escherichia coli BL21
Protocol: For the reconstitution reaction, recombinant GST-CoREST, His-LSD1, and recombinant HDAC1 (rHDAC1) (GST was removed by the use of PreScission protease) (10 μg) were assembled into the LSD1-CoREST-HDAC1 complex and then pulled down by GSTSepharose resins. Protein A-Sepharose was used as a negative-control resin.
Briefly, cells (1×10^6) were washed twice with ice-cold hypotonic buffer (20 mM potassium-HEPES, pH 7.8, 5 mM potassium acetate, 0.5 mM MgCl2, 0.5 mM DTT), swelled, and disrupted with 25 strokes in a Dounce homogenizer using a tightfitting pestle. Nuclei were pelleted at 4,000 rpm for 5 min and resuspended in buffer A (20 mM HEPES, pH 7.9, 1.5 mM magnesium acetate, 50 mM potassium acetate, 10% glycerol, 0.5 mM DTT, 150 mM NaCl, protease and phosphatase inhibitors). […] The chromatin pellet was resuspended in 0.5 mL buffer B (0.32 M sucrose, 50 mM Tris-HCl, pH 7.5, 4 mM MgCl2, 1 mM CaCl2, 0.1 mM phenylmethylsulfonyl fluoride) and incubated with 30 units of micrococcal nuclease for 10 min at 37° C. The digested samples were centrifuged at 8,000×g for 10 min, and the supernatant, which contained oligonucleosomes, was recovered.
The reaction products (demethylated or deacetylated histones) were analyzed by Western blotting.

T1 sequence (O09106 whole entry, other chains not shown): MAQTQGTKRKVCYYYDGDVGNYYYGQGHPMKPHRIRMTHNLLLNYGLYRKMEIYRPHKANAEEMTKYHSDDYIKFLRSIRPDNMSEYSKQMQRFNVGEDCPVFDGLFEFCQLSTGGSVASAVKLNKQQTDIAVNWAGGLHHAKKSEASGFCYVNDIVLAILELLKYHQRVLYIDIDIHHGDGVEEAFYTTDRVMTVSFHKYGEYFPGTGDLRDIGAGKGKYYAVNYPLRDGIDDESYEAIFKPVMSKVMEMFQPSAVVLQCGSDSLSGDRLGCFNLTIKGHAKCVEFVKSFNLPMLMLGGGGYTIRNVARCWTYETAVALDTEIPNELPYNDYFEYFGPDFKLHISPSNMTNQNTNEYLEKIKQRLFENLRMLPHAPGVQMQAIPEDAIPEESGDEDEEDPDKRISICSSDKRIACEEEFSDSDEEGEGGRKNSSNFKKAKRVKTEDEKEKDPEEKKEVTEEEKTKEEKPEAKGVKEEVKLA
T1 sequence (Q8CFE3 whole entry partner, other chains not shown): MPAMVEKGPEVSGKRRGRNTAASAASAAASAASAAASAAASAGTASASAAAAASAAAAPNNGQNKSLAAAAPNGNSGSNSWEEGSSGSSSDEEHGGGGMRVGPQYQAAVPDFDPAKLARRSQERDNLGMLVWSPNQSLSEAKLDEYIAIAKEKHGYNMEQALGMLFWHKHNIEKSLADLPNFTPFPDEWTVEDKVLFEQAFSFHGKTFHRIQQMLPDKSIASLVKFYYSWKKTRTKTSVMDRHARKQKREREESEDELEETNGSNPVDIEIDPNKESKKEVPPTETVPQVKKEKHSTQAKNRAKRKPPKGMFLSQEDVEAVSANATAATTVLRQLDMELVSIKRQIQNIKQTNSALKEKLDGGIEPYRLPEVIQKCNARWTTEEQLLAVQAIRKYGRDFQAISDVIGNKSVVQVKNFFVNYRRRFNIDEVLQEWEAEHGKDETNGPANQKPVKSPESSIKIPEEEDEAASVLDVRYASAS

COC(=O)c1cc(CN2CCN(C(=N)N)CC2)cc(C(=O)N2CCN(C(=O)c3ccc(C(=N)N)cc3)CC2)c1 [CBB1007]
cell growth [1]: sensitive | cell growth [2]: not sensitive | cell growth [3]: not sensitive | cell growth [4]: sensitive | cell growth [5]: sensitive | cell growth [6]: not sensitive | cell growth [7]: sensitive | cell growth [8]: not sensitive | cell growth [9]: specifically inhibited the growth | cell growth [10]: no detectable effects | cell growth [11]: selectively and specifically inhibit the growth | Sox2 protein level [12]: downregulation | deacetylase activity of immunoaffinity-purified HDAC1 (HDAC1-protein A) [13]: sufficient to inhibit the deacetylase activity | HDAC1 deacetylase activity in the reconstituted complex [14]: partial inhibition of the HDAC1 deacetylase activity | LSD1 demethylase activity in the reconstituted complex [14]: inhibited the activity of LSD1 demethylase
